From US20260144788A1, “COMPOUND FOR SHP2 PROTEIN DEGRADATION AND MEDICAL USES THEREOF” (UBIX THERAPEUTICS, INC., priority 2022, published 2026)

Biological target: T1, SHP2 protein (Homo sapiens, UniProt Q06124)
T1 sequence (Q06124 1-593): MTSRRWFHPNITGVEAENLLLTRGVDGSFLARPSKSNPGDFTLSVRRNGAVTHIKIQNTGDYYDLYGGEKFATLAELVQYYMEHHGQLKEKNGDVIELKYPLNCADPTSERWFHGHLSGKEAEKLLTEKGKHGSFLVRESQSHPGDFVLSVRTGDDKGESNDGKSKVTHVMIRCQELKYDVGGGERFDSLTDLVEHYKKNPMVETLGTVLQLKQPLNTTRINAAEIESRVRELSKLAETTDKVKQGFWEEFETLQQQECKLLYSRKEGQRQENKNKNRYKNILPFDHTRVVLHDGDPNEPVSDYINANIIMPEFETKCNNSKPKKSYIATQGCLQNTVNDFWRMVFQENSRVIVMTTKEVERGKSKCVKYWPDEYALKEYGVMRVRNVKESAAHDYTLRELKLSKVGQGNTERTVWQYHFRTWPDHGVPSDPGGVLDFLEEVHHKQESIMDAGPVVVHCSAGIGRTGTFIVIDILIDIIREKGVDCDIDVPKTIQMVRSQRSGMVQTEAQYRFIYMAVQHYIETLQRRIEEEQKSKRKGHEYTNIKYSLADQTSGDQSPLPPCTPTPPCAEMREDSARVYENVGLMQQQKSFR
Assay: Measurement of SHP2 protein degradation in NCI-H358 cells (western blotting)
Assay type: cell-based
Parameters: endogenous in cells; host or cells: NCI-H358
Details: harvested after 24 hours
Protocol: H358 cells were treated with the synthesized Example compounds, and the amount of SHP2 protein present in the cells was measured using western blotting detection. The protocol for the experiment using H358 cells is as follows.
[Culture]H358 cells were resuspended in RPMI1640 with 25 mM HEPES (Hyclone, SH30255.01), 10% FBS (Hyclone, SV30207.02), 1% Penicillin-streptomycin (Welgene, LS 202-02) media, seeded at 3×10^5/mL in 12-well plates (1 mL each), and cultured for 24 hours.
[Compound treatment] Before compound treatment, the media was changed to 1 mL media, and then the 12-well plate was treated as follows. The 10 mM stock dissolved in DMSO was serially diluted 1/100 or 1/10 with the media, and the compound was treated to the cells at a final concentration of 0.001, 0.01, and 0.1 μM, and harvested after 24 hours. For the negative control group, DMSO diluted 1/1000 in the media was added (1 μL DMSO+999 μL media).
[Harvest]24 hours after compound treatment, each well was scraped with a cell lifter (SPL, 90040), pipetted with a 1 mL pipette, collected in a 1.5 mL microtube, and centrifuged (500 g, 5 min, 4° C.). The supernatant was removed, washed with PBS, and centrifuged again (500 g, 5 min, 4° C.). Afterwards, the supernatant was removed to prepare a pellet.
[Cell lysis and sample preparation] Lysis buffer was prepared as follows. RIPA buffer (Biosesang, RC2038-050-00)+0.5 mM PMSF (SIGMA, P7626)+1× Protease/Phosphatase Inhibitor (Cell signaling, 5872S) were added at 30 μL per tube, vortexed, and incubated on ice for 30 minutes. Afterwards, sonication was performed (10 sec pulse, 30 sec rest, 5 cycles, 70% amplification) and centrifugation was performed (15,000 g, 15 min, 4° C.), and only the supernatant was transferred to a microtube. A 96-well plate was diluted to 1/4 with 7.5 μL of RIPA buffer and 2.5 μL of sample, and 200 μL each was added after mixing A and B of the BCA Protein Assay Kit (iNtRON, 21071) in a ratio of 50:1. The plate was incubated at 37° C. for 30 minutes and left at room temperature for 10 minutes. After shaking for 10 seconds with a SYNERGY H1 microplate reader from BioTek, the absorbance was measured at 562 nm. The protein was quantified using the measured value to make a sample, which was then incubated at 70° C. for 10 minutes. The sample buffer used here was a mixture of NuPAGE or Bolt 4× sample buffer (Invitrogen) and each 10× sample reducing agent depending on the gel to be used, and RIPA buffer was used for protein dilution.
[Western blotting detection] Equal amounts of samples were loaded onto NuPAGE or Bolt Bis-tris 4-12% gradient gel and run (200 V, 35 min). This was transferred to […] NC membrane using Trans-blot Turbo (BIO-RAD) (1.3 A constant, 25 V limit, 15 min), and blocked with 5% skim milk/0.2% TBST for 45 min at room temperature. Anti-SHPTP2 Mouse (1:1,000 in 5% skim milk/0.2% TBST, size: 70 kDa, Santa cruz sc-7384) and Anti-GAPDH Rabbit (1:2,000 in 5% skim milk or 5% BSA/0.2% TBST, size: 37 kDa, CST #2118) were added and incubated overnight at 4° C. After washing three times with 0.2% TBST washing buffer for 5 minutes each, secondary antibodies Anti-Mouse IgG (1:5,000 in 5% skim milk/0.2% TBST, CST) and IRDye® 680RD Goat anti-Rabbit IgG Secondary Antibody (1:10,000 in 5% skim milk/0.2% TBST, LI-COR 926-68071) were added, and incubated on a rocker at room temperature for 45 minutes. The resultants were washed five times with 0.2% TBST washing buffer for 5 minutes each, and detected using LI-COR's Odyssey. GAPDH was detected with a 700 nm channel, and SHPTP2 was detected using SuperSignal West Pico PLUS Chemiluminescent Substrate.

Row | Structure (SMILES) | SHP2% degradation (0.01 μM) | SHP2% degradation (0.1 μM)
1 | CC(=O)N[C@H](C(=O)N1C[C@H](O)C[C@H]1C(=O)NCc1ccc(-c2scnc2C)cc1O[C@H]1CC[C@H](C(=O)N2CC(N3CCOc4c(Sc5cnc(N6CCC(C)(CN)CC6)cn5)cccc43)C2)CC1)C(C)(C)C [Example 34, (2S,4R)-1-((S)-2-acetamido-3,3-dimethylbutanoyl)-N-(2-(((1R,4S)-4-(3-(8-((5-(4-(aminomethyl)-4-methylpiperidin-1-yl)pyrazin-2-yl)thio)-2,3-dihydro-4H-benzo[b][1,4]oxazin-4-yl)azetidine-1-carbonyl)cyclohexyl)oxy)-4-(4-methylthiazol-5-yl)benzyl)-4-hydroxypyrrolidine-2-carboxamide] | −36.9% | 73.0%
2 | CC(=O)N[C@H](C(=O)N1C[C@H](O)C[C@H]1C(=O)NCc1ccc(-c2scnc2C)cc1O[C@H]1CC[C@H](C(=O)N2CCC(N3CCOc4c(Sc5cnc(N6CCC(C)(CN)CC6)cn5)cccc43)CC2)CC1)C(C)(C)C [Example 35, (2S,4R)-1-((S)-2-acetamido-3,3-dimethylbutanoyl)-N-(2-(((1r,4S)-4-(4-(8-((5-(4-(aminomethyl)-4-methylpiperidin-1-yl)pyrazin-2-yl)thio)-2,3-dihydro-4H-benzo[b][1,4]oxazin-4-yl)piperidine-1-carbonyl)cyclohexyl)oxy)-4-(4-methylthiazol-5-yl)benzyl)-4-hydroxypyrrolidine-2-carboxamide] | 66.8% | 97.7%
3 | CC(=O)N[C@H](C(=O)N1C[C@H](O)C[C@H]1C(=O)NCc1ccc(-c2scnc2C)cc1O[C@H]1CC[C@H](C(=O)N2CCC(N3CCOc4c(Sc5cnc(N6CCC7(CC6)CO[C@@H](C)[C@H]7N)cn5)cccc43)CC2)CC1)C(C)(C)C [Example 36, (2S,4R)-1-((S)-2-acetamido-3,3-dimethylbutanoyl)-N-(2-(((1R,4S)-4-(4-(8-((5-((3S,4S)-4-amino-3-methyl-2-oxa-8-azaspiro[4.5]decan-8-yl)pyrazin-2-yl)thio)-2H-benzo[b][1,4]oxazin-4(3H)-yl)piperidine-1-carbonyl)cyclohexyl)oxy)-4-(4-methylthiazol-5-yl)benzyl)-4-hydroxypyrrolidine-2-carboxamide] | 91.0% | 100.0%
4 | CC(=O)N[C@H](C(=O)N1C[C@H](O)C[C@H]1C(=O)NCc1ccc(-c2scnc2C)cc1O[C@H]1CC[C@H](C(=O)N2CCC(n3cc(F)c4c(Sc5cnc(N6CCC(C)(CN)CC6)cn5)cccc43)CC2)CC1)C(C)(C)C [Example 37, (2S,4R)-1-((S)-2-acetamido-3,3-dimethylbutanoyl)-N-(2-(((1r,4S)-4-(4-(4-((5-(4-(aminomethyl)-4-methylpiperidin-1-yl)pyrazin-2-yl)thio)-3-fluoro-1H-indol-1-yl)piperidine-1-carbonyl)cyclohexyl)oxy)-4-(4-methylthiazol-5-yl)benzyl)-4-hydroxypyrrolidine-2-carboxamide] | 75.8% | 99. %
5 | CC(=O)N[C@H](C(=O)N1C[C@H](O)C[C@H]1C(=O)NCc1ccc(-c2scnc2C)cc1O[C@H]1CC[C@H](C(=O)N2CC(Nc3nccc(Sc4cnc(N5CCC(C)(N)CC5)cn4)c3Cl)C2)CC1)C(C)(C)C [Example 39, (2S,4R)-1-((S)-2-acetamido-3,3-dimethylbutanoyl)-N-(2-(((1R,4S)-4-(3-((4-((5-(4-amino-4-methylpiperidin-1-yl)pyrazin-2-yl)thio)-3-chloropyridin-2-yl)amino)azetidine-1-carbonyl)cyclohexyl)oxy)-4-(4-methylthiazol-5-yl)benzyl)-4-hydroxypyrrolidine-2-carboxamide] | 83.6% | 98.1%
6 | CC(=O)N[C@H](C(=O)N1C[C@H](O)C[C@H]1C(=O)NCc1ccc(-c2scnc2C)cc1O[C@H]1CC[C@H](C(=O)N2CC(Nc3nccc(Sc4cnc(N5CCC6(CC5)CO[C@@H](C)[C@H]6N)cn4)c3Cl)C2)CC1)C(C)(C)C [Example 40, (2S,4R)-1-((S)-2-acetamido-3,3-dimethylbutanoyl)-N-(2-(((1R,4S)-4-(3-((4-((5-((3S,4S)-4-amino-3-methyl-2-oxa-8-azaspiro[4.5]decan-8-yl)pyrazin-2-yl)thio)-3-chloropyridin-2-yl)amino)azetidine-1-carbonyl)cyclohexyl)oxy)-4-(4-methylthiazol-5-yl)benzyl)-4-hydroxypyrrolidine-2-carboxamide] | 94.2% | 95.9%
7 | CC(=O)N[C@H](C(=O)N1C[C@H](O)C[C@H]1C(=O)NCc1ccc(-c2scnc2C)cc1O[C@H]1CC[C@H](C(=O)N2CCC(Nc3nccc(Sc4cnc(N5CCC(C)(N)CC5)cn4)c3Cl)CC2)CC1)C(C)(C)C [Example 42, (2S,4R)-1-((S)-2-acetamido-3,3-dimethylbutanoyl)-N-(2-(((1R,4S)-4-(4-((4-((5-(4-amino-4-methylpiperidin-1-yl)pyrazin-2-yl)thio)-3-chloropyridin-2-yl)amino)piperidine-1-carbonyl)cyclohexyl)oxy)-4-(4-methylthiazol-5-yl)benzyl)-4-hydroxypyrrolidine-2-carboxamide] | 95.2% | 98.7%
8 | CC(=O)N[C@H](C(=O)N1C[C@H](O)C[C@H]1C(=O)NCc1ccc(-c2scnc2C)cc1O[C@H]1CC[C@H](C(=O)N2CCC(Nc3nccc(Sc4cnc(N5CCC6(CC5)CO[C@@H](C)[C@H]6N)cn4)c3Cl)CC2)CC1)C(C)(C)C [Example 43, (2S,4R)-1-((S)-2-acetamido-3,3-dimethylbutanoyl)-N-(2-(((1R,4S)-4-(4-((4-((5-((3S,4S)-4-amino-3-methyl-2-oxa-8-azaspiro[4.5]decan-8-yl)pyrazin-2-yl)thio)-3-chloropyridin-2-yl)amino)piperidine-1-carbonyl)cyclohexyl)oxy)-4-(4-methylthiazol-5-yl)benzyl)-4-hydroxypyrrolidine-2-carboxamide] | 94.3% | 95.9%
9 | CC(=O)N[C@H](C(=O)N1C[C@H](O)C[C@H]1C(=O)NCc1ccc(-c2scnc2C)cc1O[C@H]1CC[C@H](C(=O)N2CC(Nc3nccc(Sc4cnc(N5CCC(C)(CN)CC5)c(CO)n4)c3Cl)C2)CC1)C(C)(C)C [Example 44, (2S,4R)-1-((S)-2-acetamido-3,3-dimethylbutanoyl)-N-(2-(((1r,4S)-4-(3-((4-((5-(4-(aminomethyl)-4-methylpiperidin-1-yl)-6-(hydroxymethyl)pyrazin-2-yl)thio)-3-chloropyridin-2-yl)amino)azetidine-1-carbonyl)cyclohexyl)oxy)-4-(4-methylthiazol-5-yl)benzyl)-4-hydroxypyrrolidine-2-carboxamide] | 88.5% | 99.1%
